This note sets out measurements from ChEMBL document CHEMBL1155074, “Is quantum mechanics necessary for predicting binding free energy?” (J Med Chem, 2008).

What is called IC50 is the concentration that gives 50% inhibition. A high value points to a need for much substance. The Ki is the equilibrium dissociation constant of an inhibitor or competing ligand from its target. A high value points to lower affinity.

Molecules are shown by their SMILES. Square brackets hold non-standard residues; d marks the D form. Peptide text beside a SMILES is read from it. * marks the point of attachment. Phe(4-guanidino) = N=C(N)Nc1ccc(C[C@H](N)C(=O)O)cc1; Phe(4-Me) = Cc1ccc(C[C@H](N)C(=O)O)cc1; Phg = N[C@H](C(=O)O)c1ccccc1; Nle = CCCC[C@H](N)C(=O)O; Cbz = O=C(OCc1ccccc1)*; Bz = O=C(c1ccccc1)*; Bn = c1ccc(C*)cc1

System in the first test: not listed separately
Put plainly: Inhibition of West Nile virus NS3 protease.
`CCCC[C@H](NC(=O)c1ccccc1)C(=O)N[C@@H](CCCCN)C(=O)N[C@@H](CCCNC(=N)N)C(=O)N[C@H](C=O)c1ccccc1` (Bz-[Nle]KR[Phg]-aldehyde) registered an IC50 of 90.9 µM. `Cc1ccc(C[C@@H](C=O)NC(=O)[C@H](Cc2ccc(OCc3ccccc3)cc2)NC(=O)c2ccccc2)cc1` (Bz-Tyr(Bn)-[Phe(4-Me)]-aldehyde) displayed an IC50 of 12.7 µM. On the same count and under the same terms, next, `N=C(N)NCCC[C@@H](C=O)NC(=O)[C@H](CCCCNC(=O)OCc1ccccc1)NC(=O)c1ccccc1` (Bz-Lys(Cbz)-Arg-aldehyde): 436 µM; `Cc1ccc(C[C@@H](C=O)NC(=O)[C@H](CCCCNC(=O)OCc2ccccc2)NC(=O)[C@H](CCCCN)NC(=O)c2ccccc2)cc1` (Bz-Lys-Lys(Cbz)-[Phe(4-Me)]-aldehyde): 43.3 µM; `CCCC[C@H](NC(=O)c1ccccc1)C(=O)N[C@@H](CCCCN)C(=O)N[C@@H](CCCNC(=N)N)C(=O)N[C@H](C=O)CCCNC(=N)N` (Bz-[Nle]KRR-aldehyde): 4.1 µM. Still for that read-out and setting: the value for `CCCC[C@H](NCc1ccccc1)C(=O)N[C@@H](CCCCN)C(=O)N[C@@H](CCCNC(=N)N)C(=O)N[C@H](C=O)Cc1c[nH]c2ccccc12` was 10 µM; that for `Cc1ccc(C[C@@H](C=O)NC(=O)[C@H](CCCNC(=N)N)NC(=O)[C@H](CCCCN)NC(=O)c2ccccc2)cc1` (Bz-Lys-Arg-[Phe(4-Me)]-aldehyde) was 17.7 µM. Still for that read-out and setting: the value for `CCCC[C@H](NC(=O)c1ccccc1)C(=O)N[C@@H](CCCCN)C(=O)N[C@@H](CCCNC(=N)N)C(=O)N[C@H](C=O)Cc1ccc(NC(=N)N)cc1` (Bz-[Nle]KR[Phe(4-guanidino)]-aldehyde) was 11.8 µM; that for `N=C(N)NCCC[C@@H](C=O)NC(=O)[C@H](CCCCN)NC(=O)c1ccccc1` (Bz-Lys-Arg-aldehyde) was 1.4 µM.

The compound `N=C(N)NCCC[C@H](NC(=O)[C@H](CCCCN)NC(=O)c1ccccc1)C(=O)N[C@H](C=O)Cc1ccccc1` (Bz-Lys-Arg-Phe-aldehyde) came in with an IC50 of 71.1 µM. Still for that read-out and setting: next, `CCCC[C@H](NCc1ccccc1)C(=O)N[C@@H](CCCCN)C(=O)N[C@@H](CCCNC(=N)N)C(=O)N[C@H](C=O)Cc1ccc(C#N)cc1`: 62 µM.

`N=C(N)NCCC[C@@H](C=O)NC(=O)[C@H](CCCNC(=N)N)NC(=O)[C@H](CCCCN)NC(=O)c1ccccc1` (Bz-Lys-Arg-Arg-aldehyde): the midpoint of inhibition, the IC50, lay at 1.5 µM. Still for that read-out and setting: next, `CCCC[C@H](NC(=O)c1ccccc1)C(=O)N[C@@H](Cc1ccccc1)C(=O)N[C@@H](CCCNC(=N)N)C(=O)N[C@H](C=O)CCCNC(=N)N` (Bz-[Nle]FRR-aldehyde): 4.2 µM; `C[C@H](NC(=O)c1ccccc1)C(=O)N[C@@H](CCCCN)C(=O)N[C@@H](CCCNC(=N)N)C(=O)N[C@H](C=O)CCCNC(=N)N` (Bz-AKRR-aldehyde): 0.7 µM; `CCCC[C@H](NC(=O)c1ccccc1)C(=O)N[C@@H](CCCCN)C(=O)N[C@@H](CCCCN)C(=O)N[C@H](C=O)CCCNC(=N)N` (Bz-[Nle]KKR-aldehyde): 1.9 µM. The same measure, in the same setting: the value for `N=C(N)NCCC[C@H](NC(=O)c1ccccc1)C(=O)N[C@H](C=O)CCCCN` (Bz-Arg-Lys-aldehyde) was 57.5 µM; that for `N=C(N)NCCC[C@@H](C=O)NC(=O)[C@H](CCCNC(=N)N)NC(=O)c1ccccc1` (Bz-Arg-Arg-aldehyde) was 3.9 µM. On the same count and under the same terms, the value for `CC(=O)N[C@@H](CCCCN)C(=O)N[C@@H](CCCNC(=N)N)C(=O)N[C@H](C=O)CCCNC(=N)N` (Ac-Lys-Arg-Arg-aldehyde) was 0.5 µM. Consider `CCCC[C@H](NC(=O)c1ccccc1)C(=O)N[C@@H](CCCCN)C(=O)N[C@@H](CCCNC(=N)N)C(=O)N[C@H](C=O)Cc1ccccc1` (Bz-[Nle]KRF-aldehyde), for which inhibition was half-maximal at 110 µM (IC50). Still for that read-out and setting: the value for `CCCC[C@H](NC(=O)c1ccccc1)C(=O)N[C@@H](CCCCN)C(=O)N[C@@H](CCC(N)=O)C(=O)N[C@H](C=O)CCCNC(=N)N` (Bz-[Nle]KQR-aldehyde) was 1.7 µM. Same read-out and setting: the value for `CCCC[C@H](NC(=O)c1ccccc1)C(=O)N[C@@H](C)C(=O)N[C@@H](CCCNC(=N)N)C(=O)N[C@H](C=O)CCCNC(=N)N` (Bz-[Nle]ARR-aldehyde) was 3.8 µM; that for `Cc1ccc(C[C@H](NC(=O)[C@H](CCCCN)NC(=O)c2ccccc2)C(=O)N[C@H](C=O)CCCNC(=N)N)cc1` (Bz-Lys-[Phe(4-Me)]-Arg-aldehyde) was 194 µM. The same measure, in the same setting: the value for `CCCC[C@H](NC(=O)c1ccccc1)C(=O)N[C@@H](CCCCN)C(=O)N[C@@H](CCCNC(=N)N)C(=O)N[C@H](C=O)Cc1cnc[nH]1` (Bz-[Nle]KRH-aldehyde) was 43.1 µM; that for `CCCC[C@H](NC(=O)c1ccccc1)C(=O)N[C@@H](CCCCN)C(=O)N[C@@H](Cc1ccccc1)C(=O)N[C@H](C=O)CCCNC(=N)N` (Bz-[Nle]KFR-aldehyde) was 108 µM. `CC(=O)N[C@@H](CCCCN)C(=O)N[C@@H](CCCCN)C(=O)N[C@H](C=O)CCCNC(=N)N` (Ac-Lys-Lys-Arg-aldehyde) registered an IC50 of 0.4 µM. The compound `N=C(N)NCCC[C@H](NC(=O)[C@H](CCCCN)NC(=O)c1ccccc1)C(=O)N[C@H](C=O)Cc1ccc(OCc2ccccc2)cc1` (Bz-Lys-Arg-Tyr(Bn)-aldehyde) registered an IC50 of 11.8 µM. Turning to `NCCCC[C@H](NC(=O)[C@H](Cc1ccccc1)NC(=O)c1ccccc1)C(=O)N[C@@H](CCCN=C(N)N)C(=O)N[C@H](C=O)CCCN=C(N)N` (Bz-FKRR-aldehyde), the IC50 was determined as 1.2 µM.

For `CCCC[C@H](NC(=O)c1ccccc1)C(=O)N[C@@H](CCCCN)C(=O)N[C@@H](CCCNC(=N)N)C(=O)N[C@H](C=O)CCCCN` (Bz-[Nle]KRK-aldehyde), the midpoint of inhibition, the IC50, lay at 57.7 µM. The same measure, in the same setting: the value for `N=C(N)NCCC[C@@H](C=O)NC(=O)[C@H](CC(N)=O)NC(=O)[C@H](CCCCN)NC(=O)c1ccccc1` (Bz-Lys-Asn-Arg-aldehyde) was 71.8 µM; that for `N=C(N)NCCC[C@H](NC(=O)[C@H](CCCCN)NC(=O)c1ccccc1)C(=O)N[C@H](C=O)Cc1ccc(O)cc1` (Bz-Lys-Arg-Tyr-aldehyde) was 14.6 µM. Compound `N=C(N)NCCC[C@@H](C=O)NC(=O)[C@H](CCCNC(=N)N)NC(=O)[C@H](CCCCN)Nc1cccnc1` came in with an IC50 of 1 µM. This IC50 is about 15-fold lower than that of the compound before.

The next test deals with Protease (Human immunodeficiency virus 1, UniProt Q9YQ12). Nature of the test: Inhibition of HIV1 protease.
Sequence of Protease (Q9YQ12 whole entry): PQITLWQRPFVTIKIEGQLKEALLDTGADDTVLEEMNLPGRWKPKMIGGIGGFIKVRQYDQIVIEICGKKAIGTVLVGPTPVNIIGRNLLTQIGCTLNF
In turn, `CC(C)[C@H](NC(=O)N(C)Cc1ccccn1)C(=O)NC(Cc1ccccc1)[C@H](O)[C@H](O)[C@H](Cc1ccccc1)NC(=O)[C@@H](NC(=O)N(C)Cc1ccccn1)C(C)C` (stereo partly specified) registered a Ki of 1100 nM. Still for that read-out and setting: the value for `COC(=O)[C@@H](NC(=O)[C@@H](NC(=O)[C@H](C)N1CCC([C@H](C)NC(=O)[C@H](C)N)=C[C@@H](Cc2ccccc2)C1)C(C)C)C(C)C` was 437 nM. Compound `CC1(C)S[C@H]([C@H](NC(=O)Cc2ccccc2)C(=O)NCc2ccccc2)N[C@H]1C(=O)N[C@H](Cc1ccccc1)[C@H](O)CC(=O)NCc1nc2ccccc2[nH]1` displayed a Ki of 3.2 nM.

The compound `O=C1N(Cc2ccc3ccccc3c2)[C@H](Cc2ccccc2)[C@H](O)[C@@H](O)[C@@H](Cc2ccccc2)N1Cc1ccc2ccccc2c1` registered a Ki of 0.05 nM. The same measure, in the same setting: next, `CC(=O)N[C@H](C(=O)N[C@H](C(=O)N[C@@H](CC(C)C)[C@@H](O)CC(=O)N[C@@H](C)C(=O)N[C@@H](CC(C)C)C(O)CC(=O)O)C(C)C)C(C)C` (single isomer, unassigned) [ACETYLPEPSTATIN]: 1100 nM.
